From ChEMBL document CHEMBL4619703, “Synthesis, G-Quadruplex DNA binding and cytotoxic properties of naphthalimide substituted styryl dyes” (Bioorg Med Chem, 2020)
Active and inactive are the calls of the source. The calls are words filed in the database; no cut-off is given here.

What was measured:
[1] = tested on: HCT-116; assay: Antiproliferative activity against human HCT116 cells assessed as reduction in cell viability after 72 hrs by CCK8 assay; type: functional
[2] = target: DNA; assay: Displacement of TO from ds26 DNA (unknown origin) at pH 7.4 by spectrofluorophotometric FID assay; type: nucleic-acid assay
[3] = tested on: Calf thymus DNA; assay: Binding affinity to calf thymus DNA assessed as fluorescence intensity at 2 uM by fluorescence spectra analysis; type: nucleic-acid assay; conditions: Bos taurus
[4] = tested on: Quadruplex DNA; assay: Binding affinity to human Hum24 G-quadruplex DNA assessed as fluorescence intensity at 2 uM by fluorescence spectra analysis; type: nucleic-acid assay
[5] = tested on: Quadruplex DNA; assay: Binding affinity to human c-Myc G-quadruplex DNA assessed as fluorescence intensity at 2 uM by fluorescence spectra analysis; type: nucleic-acid assay
[6] = tested on: ssDNA; assay: Binding affinity to SS26 DNA (unknown origin) assessed as fluorescence intensity at 2 uM by fluorescence spectra analysis; type: nucleic-acid assay
[7] = tested on: Quadruplex DNA; assay: Binding affinity to human Htg-21 G-quadruplex DNA assessed as fluorescence intensity at 2 uM by fluorescence spectra analysis; type: nucleic-acid assay
[8] = target: Quadruplex DNA; assay: Displacement of TO from human 22AG G-quadruplex DNA at pH 7.4 by spectrofluorophotometric based FID assay; type: nucleic-acid assay
[9] = tested on: Quadruplex DNA; assay: Binding affinity to human 22AG G-quadruplex DNA by spectrofluorophotometric method; type: nucleic-acid assay
[10] = tested on: Quadruplex DNA; assay: Binding affinity to G-Quadruplex DNA in human HeLa cells assessed as red fluorescence emission in nucleus at 20 uM after 30 min by DAPI staining based confocal microscopic method; type: cell-based
[11] = tested on: Quadruplex DNA; assay: Binding affinity to human EAD G-quadruplex DNA assessed as fluorescence intensity at 2 uM by fluorescence spectra analysis; type: nucleic-acid assay
[12] = tested on: Quadruplex DNA; assay: Binding affinity to human Pu27 G-quadruplex DNA assessed as fluorescence intensity at 2 uM by fluorescence spectra analysis; type: nucleic-acid assay
[13] = tested on: HeLa; assay: Antiproliferative activity against human HeLa cells assessed as reduction in cell viability after 72 hrs by CCK8 assay; type: functional
[14] = tested on: Calf thymus DNA; assay: Displacement of TO from calf thymus DNA at pH 7.4 by spectrofluorophotometric FID assay; type: nucleic-acid assay, Bos taurus
[15] = target: Quadruplex DNA; assay: Displacement of TO from human Htg 21 G-quadruplex DNA at pH 7.4 by spectrofluorophotometric FID assay; type: nucleic-acid assay
[16] = tested on: HEK-293T; assay: Cytotoxicity against human 293T cells assessed as reduction in cell viability after 72 hrs by CCK8 assay; type: cell-based
[17] = target: Quadruplex DNA; assay: Displacement of TO from human Hum 24 G-quadruplex DNA at pH 7.4 by spectrofluorophotometric FID assay; type: nucleic-acid assay
[18] = tested on: Quadruplex DNA; assay: Binding affinity to human Hum24 G-quadruplex DNA assessed as inhibition of G4/hemin peroxidase at 1 to 5 uM preincubated for 1 hr followed by hemin addition and further incubated for 1 hr and H2O2 addition and measured after 30 mins by UV spectrophotometric method; type: nucleic-acid assay
[19] = tested on: Quadruplex DNA; assay: Binding affinity to human G3T3 G-quadruplex DNA assessed as fluorescence intensity at 2 uM by fluorescence spectra analysis; type: nucleic-acid assay
[20] = tested on: Quadruplex DNA; assay: Binding affinity to human c-Myc G-quadruplex DNA at 2 uM incubated for 2 mins by UV- vis spectrophotometric analysis; type: nucleic-acid assay
[21] = target: Quadruplex DNA; assay: Displacement of TO from human EAD G-quadruplex DNA at pH 7.4 by spectrofluorophotometric FID assay; type: nucleic-acid assay
[22] = target: Quadruplex DNA; assay: Displacement of TO from human Pu 27 G-quadruplex DNA at pH 7.4 by spectrofluorophotometric FID assay; type: nucleic-acid assay
[23] = tested on: Quadruplex DNA; assay: Binding affinity to human CM22 G-quadruplex DNA by spectrofluorophotometric method; type: nucleic-acid assay
[24] = tested on: Quadruplex DNA; assay: Binding affinity to human CM22 G-quadruplex DNA assessed as fluorescence intensity at 2 uM by fluorescence spectra analysis; type: nucleic-acid assay
[25] = target: Quadruplex DNA; assay: Displacement of TO from human c-Myc G-quadruplex DNA at pH 7.4 by spectrofluorophotometric FID assay; type: nucleic-acid assay
[26] = tested on: Quadruplex DNA; assay: Binding affinity to human Pu27 G-quadruplex DNA at 2 uM incubated for 2 mins by UV- vis spectrophotometric analysis; type: nucleic-acid assay
[27] = tested on: Quadruplex DNA; assay: Binding affinity to human 22AG G-quadruplex DNA at 2 uM incubated for 2 mins by UV- vis spectrophotometric analysis; type: nucleic-acid assay
[28] = tested on: Quadruplex DNA; assay: Binding affinity to human Htg-21 G-quadruplex DNA at 2 uM incubated for 2 mins by UV- vis spectrophotometric analysis; type: nucleic-acid assay
[29] = tested on: Quadruplex DNA; assay: Binding affinity to human EAD G-quadruplex DNA at 2 uM incubated for 2 mins by UV- vis spectrophotometric analysis; type: nucleic-acid assay
[30] = tested on: Quadruplex DNA; assay: Binding affinity to human 22AG G-quadruplex DNA assessed as inhibition of G4/hemin peroxidase at 1 to 5 uM preincubated for 1 hr followed by hemin addition and further incubated for 1 hr and H2O2 addition and measured after 30 mins by UV spectrophotometric method; type: nucleic-acid assay
[31] = target: Quadruplex DNA; assay: Displacement of TO from human G3T3 G-quadruplex DNA at pH 7.4 by spectrofluorophotometric FID assay; type: nucleic-acid assay
[32] = target: Quadruplex DNA; assay: Displacement of TO from human CM22 G-quadruplex DNA at pH 7.4 by spectrofluorophotometric FID assay; type: nucleic-acid assay
[33] = tested on: Quadruplex DNA; assay: Binding affinity to human Hum24 G-quadruplex DNA at 2 uM incubated for 2 mins by UV- vis spectrophotometric analysis; type: nucleic-acid assay
[34] = tested on: MDA-MB-231; assay: Antiproliferative activity against human MDA-MB-231 cells assessed as reduction in cell viability after 72 hrs by CCK8 assay; type: functional
[35] = target: Poly(dG-dC)oligonucleotide; assay: Displacement of TO from Polyd(G-C)7 DNA at pH 7.4 by spectrofluorophotometric FID assay; type: nucleic-acid assay
[36] = tested on: Poly(dG-dC)oligonucleotide; assay: Binding affinity to poly (G-C)7 DNA assessed as fluorescence intensity at 2 uM by fluorescence spectra analysis; type: nucleic-acid assay
[37] = tested on: Quadruplex DNA; assay: Binding affinity of human G3T3 G-quadruplex DNA at 2 uM incubated for 2 mins by UV- vis spectrophotometric analysis; type: nucleic-acid assay
[38] = tested on: DNA; assay: Binding affinity to ds26 DNA (unknown origin) assessed as fluorescence intensity at 2 uM by fluorescence spectra analysis; type: nucleic-acid assay
[39] = tested on: Quadruplex DNA; assay: Binding affinity to human G-Quadruplex DNA assessed as aggregation at 10 uM by TEM analysis; type: nucleic-acid assay
[40] = tested on: Quadruplex DNA; assay: Binding affinity to human 22AG G-quadruplex DNA assessed as fluorescence intensity at 2 uM by fluorescence spectra analysis; type: nucleic-acid assay
[41] = tested on: Quadruplex DNA; assay: Binding affinity to human c-Myc G-quadruplex DNA assessed as inhibition of G4/hemin peroxidase at 1 to 5 uM preincubated for 1 hr followed by hemin addition and further incubated for 1 hr and H2O2 addition and measured after 30 mins by UV spectrophotometric method; type: nucleic-acid assay
[42] = tested on: Quadruplex DNA; assay: Binding affinity to human CM22 G-quadruplex DNA at 2 uM incubated for 2 mins by UV- vis spectrophotometric analysis; type: nucleic-acid assay

Question: Which results are given for `C[n+]1c(/C=C/c2ccc(N3CCN(CCCN4C(=O)c5cccc6cccc(c56)C4=O)CC3)cc2)ccc2c3ccccc3ccc21.[I-]`?
Answer: Activity [1]: 0.4764 µM; DC50 [2]: 980 nM; fold change (FC) [3]: 50 to 300; fold change (FC) [4]: 700 to 1800; fold change (FC) [5]: 1800; fold change (FC) [6]: 50 to 300; fold change (FC) [7]: 700 to 1800; DC50 [8]: 480 nM; Ka [9]: 0.27 ×10⁶ /M; Activity [10]: Active; fold change (FC) [11]: 700 to 1800; fold change (FC) [12]: 700 to 1800; Activity [13]: 0.2438 µM; DC50 [14]: 850 nM; DC50 [15]: 690 nM; Activity [16]: 0.5372 µM; DC50 [17]: 500 nM; inhibition [18]: Active; fold change (FC) [19]: 700 to 1800; Activity [20]: Active; DC50 [21]: 350 nM; DC50 [22]: 320 nM; Ka [23]: 290000 M⁻¹; fold change (FC) [24]: 700 to 1800; DC50 [25]: 320 nM; Activity [26]: Active; Activity [27]: Active; Activity [28]: Active; Activity [29]: Active; inhibition [30]: Active; DC50 [31]: 410 nM; DC50 [32]: 390 nM; Activity [33]: Active; Activity [34]: 0.1432 µM; DC50 [35]: > 1500 nM; fold change (FC) [36]: 50 to 300; Activity [37]: Active; fold change (FC) [38]: 50 to 300; Activity [39]: Active; fold change (FC) [40]: 700 to 1800; inhibition [41]: Active; Activity [42]: Active

Question: Which Activity [1] does the source give for `C[n+]1ccccc1/C=C/c1ccc(N2CCN(CCCN3C(=O)c4cccc5cccc(c45)C3=O)CC2)cc1.[I-]` here?
Answer: 0.5566 µM

Question: What about the fold change (FC) [3] of the same compound?
Answer: 50 to 300

Question: What about the fold change (FC) [4] of the same compound?
Answer: 700 to 1800

Question: And the fold change (FC) [5]?
Answer: 16

Question: What about the fold change (FC) [6] of the same compound?
Answer: 50 to 300

Question: What about the fold change (FC) [7] of the same compound?
Answer: 700 to 1800

Question: What about the fold change (FC) [11] of the same compound?
Answer: 700 to 1800

Question: And the fold change (FC) [12]?
Answer: 700 to 1800

Question: And the Activity [13]?
Answer: 0.1913 µM

Question: And the Activity [16]?
Answer: 1.753 µM

Question: And the fold change (FC) [19]?
Answer: 700 to 1800

Question: And the Activity [20]?
Answer: inactive

Question: And the fold change (FC) [24]?
Answer: 700 to 1800

Question: And the Activity [26]?
Answer: inactive

Question: And the Activity [27]?
Answer: inactive

Question: And the Activity [28]?
Answer: inactive

Question: What about the Activity [29] of the same compound?
Answer: inactive

Question: And the Activity [33]?
Answer: inactive

Question: What about the Activity [34] of the same compound?
Answer: 0.1014 µM

Question: And the fold change (FC) [36]?
Answer: 50 to 300

Question: And the Activity [37]?
Answer: inactive

Question: And the fold change (FC) [38]?
Answer: 50 to 300

Question: What about the fold change (FC) [40] of the same compound?
Answer: 700 to 1800

Question: What about the Activity [42] of the same compound?
Answer: inactive

Question: Which Activity [1] does the source give for `O=c1[nH]cc(F)c(=O)[nH]1` [FLUOROURACIL] here?
Answer: 1.123 µM

Question: What about the Activity [13] of the same compound?
Answer: 0.8046 µM

Question: And the Activity [16]?
Answer: 0.5879 µM

Question: What about the Activity [34] of the same compound?
Answer: 0.8615 µM
